Experimental findings from patent publication US20240156789A1, “ORAL FELINE FEED AND METHODS FOR CONTROLLING FLEA INFESTATIONS IN A FELINE” (priority 2021, published 2024) are described below.

Holding throughout (assay type): in vivo
Data set [1] in a line: Example 5: plasma levels of isoxazoline in cats given two medicated feed formulations. To be noted: 1 mg/kg daily, days 0-14. As to the method:
Methods: A pool of cats are to be randomly assigned to a single control group and 2 treatment groups with 6 cats per group.
(§1) The cats are to be housed individually during the study period and are to have ad libitum access to water.
Each cat in a treatment group (test groups 2 and 3) is to receive one of two medicated daily feeds from study days 0-14. The medicated daily feed is to be offered to the cats for 1 hour on each of days 0-14 according to TABLE 3.
Blood is to be drawn at day 0 (day of the first administration of medicated feed) and days 2, 4, 7, 10, 14, 21 and 30 after the initial dose of isoxazoline is administered. The average concentration of isoxazoline in the blood for each of the medicated feed formulations (treatment groups 2 and 3) can then be determined.

A short description of data set [2]: Example 1: average plasma concentration of isoxazoline in cats, daily oral liquid dosing. To be noted: 1.125 mg/kg daily oral. As to the method:
(§2) Each cat in the isoxazoline treatment group is to receive by mouth a liquid formulation of isoxazoline. The dosage of 1.125 mg/kg of isoxazoline is to be administered to the cats on each of days 0-29.
Using the same study method as described above, blood is to be drawn at 72, 168, 336, 504, 720 and 888 hours after the initial dose of isoxazoline is administered. The average concentration of isoxazoline in the blood can then be determined.

The test system of data set [3] is Ctenocephalides felis. The data set is described as follows: Example 6: efficacy of Mivorilaner in medicated feed in cats against fleas.
Excerpt: FIG. 1. A graph of the arithmetic mean efficacy for treatment Group 2 (vertical hash) and Group 3 (horizontal hash). Percent efficacy=[AM fleas CONTROL−AM fleas TREATED]/AM fleas CONTROL Efficacy measured at 2, 9, 16, 30, and 37 days after Initial Treatment.
Methods: A pool of cats are to be preliminarily infested with ˜100 unfed adult C. felis fleas in order to produce cats that can suitably sustain a reliable infestation rate, defined as approximately 50% retention of live fleas at the end of a 48-hour period. The cats with the highest live flea counts are to be randomly assigned to a single control group (Group 1) and 2 medicated feed treatment groups (Groups 2 and 3) with 4 cats per group. The cats in groups 2 and 3 will receive Mivorilaner.
as §1
Each cat in a treatment group (Groups 2 and 3) is to receive a medicated daily feed from study days 0-29 according to TABLE 4.
The cats are to be fasted overnight prior to each daily treatment. The daily dose of Mivorilaner is to be mixed into a small portion (approximately 25% of the cat's daily dietary needs) of wet canned cat food. Approximately 4 hours after the medicated feed has been initially offered, the remaining medicated feed, if any, will be mixed with the 75% unmedicated daily feed for each cat. […]

Data set [4] concerns Ctenocephalides felis. The data set is described as follows: Example 1: efficacy of isoxazoline liquid formulation given by mouth to cats against fleas. Particulars: 1.125 mg/kg by mouth daily on days 0-29, liquid formulation, fed.
Excerpt: Methods: A pool of 14 cats are to be preliminarily infested with ˜100 unfed adult C. felis in order to identify cats that can suitably sustain a reliable infestation rate, defined as approximately 50% fleas being live at the end of a 48-hour period. The 12 cats with the highest live flea counts are to be selected for inclusion in the study. The cats are to be randomized and divided into a control group and a treatment group with 6 cats per group.
The cats are to be housed individually during the study period and are to be fed a commercial dry cat food ration with ad libitum access to water.
as §2
Cats in the control group are not to receive isoxazoline or any other flea control treatment. Each cat in the treatment group is to be offered its daily ration (dry food) and the individual doses of liquid formulation are to be administered after the individual cat has eaten at least 25% of its total daily ration. After receiving the dose of isoxazoline, the cats are to be allowed to continue eating. This mimics incorporating the isoxazoline in feed. Each cat in the treatment group and the control group is to be experimentally infested with 100 unfed adult fleas on test days −1, 5, 12, 20 and 35. […]

Take `O=C(CNC(=O)c1sc(C2=NO[C@@](c3cc(Cl)c(F)c(Cl)c3)(C(F)(F)F)C2)c2c1CCC2)NCC(F)F` [mivorilaner, 3-[(5S)-5-(3,5-dichloro-4-fluorophenyl)-5-(trifluoromethyl)-4,5-dihydroisoxazol-3-yl]-N-[2-[(2,2-difluoroethyl)amino]-2-oxoethyl]-5,6-dihydro-4H-cyclopenta[c]thiophene-1-carboxamide]: the plasma concentrations entry in data set [1] is “consistent between treatment groups 2 and 3”. Further, the average plasma concentration result in data set [2] (at 72 hours) is “about 1011 ng/mL”; in data set [2] (at 504 hours) it was “about 4088 ng/mL”; in data set [2] (at 888 hours, approximately 8 days after the final dose) it was “about 3025 ng/mL”. For the same compound, the “Percent efficacy (reduction in live and moribund flea counts)” value came to 100% in the data set on Ctenocephalides felis [3] (Group 2, 0.75 mg/kg daily in wet canned cat food days 0-29, by day 9) and 100% with Ctenocephalides felis [3] (Group 3, 1.5 mg/kg daily in wet canned cat food days 0-29, by day 9). Moreover, the “reduction in live flea counts over the control group” value in the data set on Ctenocephalides felis [4] is “at least 95%”.
